The source of these data is patent publication US11819540B2, “Methods for treating and preventing neutrophil-derived net toxicity and thrombosis” (CHILDREN'S MEDICAL CENTER CORPORATION, priority 2011, dated 2023).

For experiment [1], the system named is NETs. Nature of the experiment: Perfusion of blood over NETs in a flow chamber. The class given is cell-based, human. On the procedure: The interaction between NETs and blood was studied using NETs isolated from human neutrophils. Blood samples were obtained from healthy donors who had not taken any medication for at least 10 day. Platelets and neutrophils were prepared from ACD-blood (Brill A, et al. Cardiovasc Res 2009 84(1):137-144) or EDTA-blood (Fuchs et al., J Cell Biol 2007 176:231-241), respectively. Neutrophils were seeded into flow chambers (μ-Slide IV, IBIDI) at 0.5 to 1×10^7 cells/mL. NET formation by the majority of cells was induced by phorbol 12-myristate 13-acetate (PMA, 50 nM, 4 h; Sigma Aldrich) or glucose oxidase (GO, 1 U/mL, 4 h; Worthington Biochem), as previously described (Brill A, et al. Cardiovasc Res 2009 84(1):137-144). PMA-induced NETs were used for initial observations. Other experiments were done with GO-induced NETs. NETs were washed and blocked with 1% BSA (Calbiochem). NET-DNA was stained with 1 μg/mL Hoechst 33258 (Invitrogen) for 15 min at 37° C. or SytoxGreen (1 μM, Invitrogen). Washed platelets were loaded with fluorescent Calcein-AM (2.5 μg/mL, 10 min, 37° C.; Invitrogen) or platelets in whole blood were labeled with Rhodamine 6G (5 μg/mL, 10 min, 37° C.; Sigma). Fluorescent images were acquired by a Zeiss Axiovert 200 inverted fluorescence microscope in conjunction with a monochrome camera (AxioCam MRm). Colors for fluorescence channels were assigned using Axiovision software. Fluorescent areas in images were quantified using ImageJ software.
(§1) NETs were induced on glass coverslips and perfusion was performed using a parallel-plate flow chamber system (Glycotech). NETs were perfused with platelets suspended in plasma at a shear rate of 200/s or 900/s and 37° C. using a peristaltic pump and observed to be avidly adhering platelets. NETs were washed and fixed with 2.5% glutaraldehyde and electron microscopy was performed. […] NETs were also perfused with ACD-anticoagulated blood supplemented with the irreversible thrombin inhibitor PPACK-Dihydrochloride (100 μM; Calbiochem) and recalcified by addition of 2 mM CaCl2. […] Cells firmly attached to collagen or NETs were lysed with 100 μL of 0.5% Triton×100 in water. Hemoglobin content was measured using the method of Drabkin (Drabkin PNAS 1971 68:609-13). To quantify platelets, Rhodamine-6G fluorescence of the sample was analyzed using a fluorometer.
Strings of NETs aligned in the direction of flow and, importantly, NETs were not a static surface but moved in three dimensions. Within 1 min from onset of perfusion, small platelet aggregates appeared on NETs. Platelet adhesion and aggregation on NETs increased over the next 9 min. […] Both platelet aggregates and NETs were removed by DNase and 10 minutes after the beginning of perfusion (FIGS. 1C and 1D). […] Thus, NETs were the only prothrombotic substrate in these experiments. FIGS. 1C and 1D show data that are representative of at least three independent experiments and are shown as mean±SEM, n=3. AU means arbitrary units.

The test system of experiment [2] is collagen. Nature of the experiment: Perfusion of blood over collagen-coated flow chamber. The class given is cell-based. Conditions: blood supplemented with DNase. On the procedure:
as §1
When NETs were washed after perfusion with blood and observed macroscopically a red thrombus was detectable (FIG. 3A). Shown in FIG. 3A is a flow chamber coated with NETs after perfusion with blood. Light microscopy of a red thrombus (arrow) anchored on two strings (arrowheads). FIG. 3A is a composite of multiple photographs of the flow chamber. (Scale bar, 500 μm). […] RBC adhesion to NETs was prevented when blood was supplemented with DNase, confirming that RBCs were attached to NETs. […]

Experiment [3] relates to NETs. Briefly: Incubation of NETs under static conditions, immunodetection of released histone H2B. The class given is cell-based, human. The source says:
(§2) For FIGS. 2A and 2B data are presented as mean±SEM, n=3; (Student's t test; *P<0.05; **P<0.01). […] A second band (arrowhead) may represent cross reactivity of the antibody or a proteolytic product. Data presented are representative of three independent experiments. FIG. 2D is a graph of the degree of aggregation of platelets treated with thrombin (open circles), human recombinant histone H3 (solid circles), EDTA (solid squares), and heparin (solid triangles). […] FIG. 2E is a graph of the degree of aggregation of platelets 3 minutes after addition of various histones or throbmin (Thr). […] (ANOVA; ***P<0.001 compared with histone H1).
The effect of heparin was also observed in medium, indicating a direct interaction of heparin with the NETs. Heparin has high affinity for histones (Pal et al., Thromb Res 1983 31:69-79) and releases histones from chromatin (Napirei et al. FEBS J 2009 276:1059-1073).

The subject of experiment [4] is NETs. Nature of the experiment: Binding of plasma VWF, fibronectin and fibrinogen to NETs. The class given is cell-based, human. Conditions: DNaseI 100 U/mL, 10 min after plasma incubation. On the procedure:
FIGS. 19A-19C depict graphs of the binding of von Willebrand factor (VWF), fibronectin, and fibrinogen to neutrophil extracellular traps (NETs). Human NETs were incubated with human plasma for 30 min, washed, and stained for VWF (19A), fibronectin (19B), or fibrinogen (19C). […] Data are presented as mean±SEM, n=3; (Student's t test); **P<0.01; ***P<0.001.
Whether NETs can concentrate plasma proteins that promote and stabilize thrombi (Frenette and Wagener NEJM 1996 335:43-5) was determined. […] After the activation, NETs were incubated with 1% BSA for 1 h at 37° C. NETs were washed and incubated with 50% plasma in PBS for 30 min at 37° C. Next, NETs were washed and treated with DNaseI (100 U/mL, 10 min). After another wash, cells were fixed with paraformaldehyde (2%, 1 h at 37° C.) and unspecific binding sites were blocked with BSA (3%, 1 h at 37° C.). Primary antibodies were used at 1 μg/mL in PBS supplemented with 1% BSA and 0.1% Triton×100 [mouse-antifibrinogen, rabbit-antifibronectin (both Sigma); rabbit-anti-VWF, (Chemicon)]. After incubation at 37° C. for 1 h, samples were washed with PBS and fluorescently conjugated secondary antibodies (Invitrogen) were applied at 10 μg/mL for 30 min at 37° C. […] The interaction of fibrinogen with NETs and its ability to promote fibrin deposition was determined. […]

Experiment [5] deals with blood clots (fibrin and NET scaffold). Briefly: Clot formation in recalcified blood with or without PAF-activated neutrophils (thrombolysis). The class given is cell-based, human. Conditions: tPA 25 μg/mL, DNase 100 U/mL. Here is the method:
Fibrin polymerization was induced in blood by recalcification and incubated either in the absence (medium) or presence of neutrophils preactivated by PAF to induce NET formation (neutrophils+PAF). Samples were treated with DNase to digest extracellular traps or tPA for fibrin digestion. […] (Scale bar, 1 cm.) The graph presents quantification of the clots by weighing. […] Data are presented as mean±SEM, n=4; (ANOVA; ***P<0.001). The first bar in each x-axis category represents the untreated samples, the second bar represents the samples treated with DNase, the third bar represents the samples treated with tPA, and the fourth bar represents the samples treated with tPA and DNase.
The relative susceptibility of NETs and fibrin to serve as scaffolds for blood clots to thrombolysis was examined (FIG. 20). Neutrophils were prestimulated with platelet-activating factor to release NETs with recalcified blood under stirring conditions. Two-hundred-fifty microliters of 5×10^6 neutrophils per milliliter in RPMI medium were activated by platelet activating factor (50 μM Calbiochem) at 37° C. under static conditions to induce NET formation. Control samples were 250 μL medium alone, 250 μL of unstimulated neutrophils, or 250 μL of 50 μM PAF in medium. After 10 min, 250 μL of recalcified (40 mM CaCl2) ACD anticoagulated blood was added. […] Images were acquired and the clot was determined. […]

The subject of experiment [6] is platelets. Nature of the experiment: Platelet aggregation (light transmission) with histones. To be noted: EDTA 5 mM; heparin. The class given is cell-based, human.
Excerpt: as §2
The possibility of a direct interaction between platelets and histones was examined. […] Thrombin (0.5 U/mL; open circles in FIG. 2D) and […] served as a positive control in these experiments. Aggregation in response to histone H3 (FIG. 2D) and H4 (data not shown) was inhibited by EDTA (5 mM; solid squares in FIG. 2D) which excluded platelet agglutination caused by the positive charge of histones. […] Dissociating NETs and inhibiting histones could add to the antithrombotic effects of heparin.

Where [7] appears, read: blood supplemented with DNase at the beginning of the perfusion.

Consider DNase, for which, in experiment [1] (DNase 100 U/mL added 10 min after beginning of perfusion), the “NETs and adherent platelets after DNase addition” value is “simultaneously removed NETs and platelets”. In experiment [1] (blood supplemented with DNase), the “RBC adhesion to NETs” value is “prevented” and the “platelet adhesion to NETs” value is on record as “prevented platelet adhesion to NETs”. For the same compound, in experiment [1] (setting [7]), the “NETs (NET-DNA area)” value was “NETs were degraded rapidly” and the “platelet aggregates on NETs” value is “platelet aggregates did not form”. Besides, the “platelet adhesion to collagen-coated chambers” value in experiment [2] is on record as “had no effect”. Also, the “release of histones (H2B) from NETs” value in experiment [3] is “released histones to the culture supernatant”. For the same compound, the “binding of VWF, fibronectin and fibrinogen to NETs” value in experiment [4] is “binding to NETs in a DNase-sensitive manner”. Besides, the clot formation entry in experiment [5] (absence of activated neutrophils (medium)) is given as “had no effect”. The “clot formation / clot size” value in experiment [5] (presence of PAF-activated neutrophils) was “did not change”.

With `O=C(O)CN(CCN(CC(=O)O)CC(=O)O)CC(=O)O` [EDTA, ethylenediaminetetraacetic acid], the “platelet aggregation in response to histone H3 and H4 in presence of inhibitor” value in experiment [6] is on record as “inhibited”.

On to Heparin [reference compound], for which, in experiment [1] (heparin 10 μg/mL), the “platelet aggregates on NETs” value is listed as “removed platelet aggregates from NETs”. Moreover, the “NETs (NET-DNA)” value in experiment [1] (heparin 100 μg/mL, perfusion with heparinized blood, 10 min) was “almost completely dismantled NETs”. Further, the “release of histones (H2B) from NETs” value in experiment [3] is on record as “released histones to the culture supernatant”. Further, the “platelet aggregation in response to histone H3 and H4 in presence of inhibitor” value in experiment [6] is “completely abolished platelet response to these histones”.
